# Measured values published in US10987357B2, “Aerosolized fluoroquinolones and uses thereof” (Horizon Orphan, LLC, priority 2005, dated 2021).
# Several values for one entry are separate records, joined by “and”; a condition that tells them apart may be missing. Equal values may be shown once. Where a name gives a salt, the structure may show the parent alone. Read-outs that look alike come from different tables or passages of the source.
# B1: reduced rhTrx: stable reduced form of recombinant human thioredoxin (protein, UniProt P10599 2-105, looked up)
# Thioredoxin: VKQIESKTAFQEALDAAGDKLVVVDFSATWCGPCKMIKPFFHSLSEKYSNVIFLEVDVDDCQDVASECEVKCMPTFQFFKKGQKVGEFSGANKEKLEATINELV
# modifications: reduced form
# Assays:
# [1] = in vivo
# Experimental: In the second test, the tolerability and taste of a small aerosol sample from a 0.5 ml aliquot of the test formulation was determined in a single healthy human volunteer, following nebulization in a PARI eFlow nebulizer (Table 12).
# The tolerability and taste of the drug during a very brief administration period and for a period of 10 minutes post administration were monitored. Tolerability parameters were of the following types: (i) cough, cough sensation, or sneezing (ii) irritation, burning or tightness of throat, (ii) irritation or runniness in nasal passages or eyes, (iii) irritation, burning or tightness of the lungs or shortness of breadth, and (iv) dizziness, headache, nausea or other systemic effects.
# [2] = tested on: Streptococcus pneumonia (Sp); details: Table 6; cited from earlier work
# MSSA = details: Table 6; cited from earlier work
# [3] = tested on: methicillin resistant Staphylococcus aureus (MRSA); details: Table 6; cited from earlier work
# [4] = tested on: Pseudomonas aeruginosa (Pa); details: cited from earlier work
# [5] = in vivo; cited from earlier work
# [6] = 750 mg oral dose; cited from earlier work
# [7] = tested on: P. aeruginosa strain PAM 1723; test: Mouse lung infection efficacy model; details: Pseudomonas aeruginosa, PAM1723, in Mus musculus
# Experimental: The inoculum is adjusted to ca. 5×10^6 CFU/ml by correlation of absorbance at 600 nm with predetermined plate counts. […] On day 5, mice are infected by an intratracheal instillation of 0.05 ml of inoculum while under isoflurane anesthesia (5% isoflurane in oxygen running at 4 L/min). […] Mice are sacrificed 1 and 4 hours after treatment, their lungs removed, homogenized and plated to determine colony counts.
# PAM1020 [8] = test: microbe, parasite or virus in culture; format: cell-based, P. aeruginosa; details: Pseudomonas aeruginosa, read-out: Levofloxacin MIC
# Source text: (§1) . Those were chosen based on what is known about conditions and growth of PA in a cystic fibrosis (CF) lung. Four isogenic strains of P. aeruginosa were used for these experiments (Table 2).
# PAM1032 [9] = format: cell-based, P. aeruginosa; details: PAM1032, genotype nalB
# Source text: as §1
# PAM1582 [10] = test: Levofloxacin MIC of hollow fiber test strain; format: cell-based; details: Pseudomonas aeruginosa, read-out: Levofloxacin MIC
# Source text: Pseudomonas aeruginosa PAM1032 and PAM1582. […]
# PAM1020 [11] = test: Time-kill, exponentially grown cells (Experiment 1); format: cell-based, P. aeruginosa; details: 64 ug/ml ([…] MIC), 10 minutes
# Experimental: At appropriate times, 1 ml of each exposure culture was centrifuged for 2 minutes, the pellet was washed twice with 1 ml of drug-free MHB, and re-suspended in 1 ml of MHB. The viable cell numbers were enumerated by plating serially diluted samples (in duplicates) on MHB plates by the drop (10 ul) plating method. The limit of detection was 100 CFU/ml. Killing is reported as the log reduction calculated relative to cell count at the time of initiation of antibiotic exposure. Relative antibiotic concentrations (relative to MIC of the corresponding strains) are used.
# PAM1032 [12] = format: cell-based, P. aeruginosa
# Experimental: Overnight cultures were grown aerobically overnight in Mueller-Hinton Broth and next diluted 1:10000 in MEM which filled growth flasks to the very top. Cultures were grown without shaking to OD˜0.3 at 37° C. […] Other than decreased aeration, antibiotic concentration, time of exposure, and determination of viable cell counts were the same as in Experiments 1 and 2.
# [13] = tested on: colony biofilms of PAM1032; format: cell-based, P. aeruginosa; details: 10 minutes of exposure
# Experimental: The viable cell numbers were enumerated by plating serially diluted samples (in duplicates) on MHB plates by the drop (10 ul) plating method.
# PAM1032 [14] = test: In vitro pharmacodynamic (hollow fiber) model of infection; format: cell-based, Pseudomonas aeruginosa; details: for reduction in bacterial counts: half-life 10 minutes
# Experimental: (§2) The in vitro pharmacodynamic model consists of a central (analogous “serum” compartment) and peripheral (“extravascular”) compartment. The peripheral compartments consist of artificial capillary units (Unisyn, Hopkinton, Mass.) arranged in series with the central compartment. Each capillary unit has a bundle of small semi-permeable fibers with a molecular size retention of ca. 10,000 MW to allow passage of nutrients but not bacteria. The entire system is set up in a dry heat incubator adjusted to 37° C.
# (§3) Both the central and peripheral compartments were filled with Mueller-Hinton broth. Each peripheral compartment (capillary unit and tubing) contained ca. 23 ml of growth medium.
# (§4) Bacteria were introduced into the peripheral chamber of the model and allowed to grow for 2 hours prior to the first “dose” of drug. Drug doses were administered into the central compartment and pumped to peripheral chambers by a peristaltic pump. Concentrations in the model declined according to first order elimination (half-life) by dilution of the central compartment with drug free medium introduced by an additional peristaltic pump adjusted to the desired clearance.
# (§5) Samples (0.3 ml) were collected from peripheral compartments at various intervals for determination of drug and bacterial concentrations. Samples were collected from the peripheral compartments and assayed for drug concentrations by HPLC.
# (§6) Of the resulting dilution, 2.3 ml was injected into each peripheral chamber of the hollow-fiber bioreactors (Unisyn, Hopkinton, Mass.).
# PAM1582 [15] = format: cell-based, Pseudomonas aeruginosa; details: for reduction in bacterial counts: half-life 10 minutes
# Experimental: as §2, §3, §4, §5, §6
# [16] = Rat pharmacokinetic model (IV vs microspray aerosol, intratracheal); format: in vivo, rats; details: 10 mg/kg; for AUC: epithelial lining fluid (ELF)
# Experimental: […] Blood samples are taken at various times over 3 hours to determine the plasma pharmacokinetic parameters. […] The plasma and tissue concentrations are determined by an HPLC method and the data are then fit using WinNonlin.
# physchem [17] = test: physchem
# Experimental: This solution was titrated with 1 N HCl. Measured aliquots of HCl were added and the pH recorded after each addition. Titration was continued till a pH of 1.
# Vep volume of titrant added till the equivalence point; [OH^−]=hydroxide ion concentration=Kw/[…]; [H^+]=hydronium ion concentration=10^−pH.
# physchem [18] = test: physchem; remark: listed apart in the source
# Source text: The buffers used were HCL (pH 1,2), acetate (pH 4,5), phosphate (pH 6,7,8) and borate (9,10).
# [19] = 4 day GLP inhalation toxicology study
# [20] = 28-day GLP inhalation toxicology study
# [21] = 4 day non-GLP ascending dose inhalation toxicology study; details: 24 hours after the last dose
# [22] = Tolerability of aerosol levofloxacin in a healthy human subject
# [23] = Gemifloxacin formulations with organic bases: pH and osmolality; format: physicochemical; details: before pH adjustment
# Source text: (§7) It was filtered through a 0.45 micron filter.
# as §7, §7, §7, §7
# [24] = in vivo; cited from earlier work; remark: listed apart in the source
# [25] = cited from earlier work
# elastase = details: cited from earlier work
# [26] = 1 h, read-out: DeltaLOG CPU 1 hr, route IT, dose 25 mg/kg, 1 hr post-drug administration
# [27] = 4 h, read-out: DeltaLOG CPU 4 hr, route IT, dose 25 mg/kg, 4 hr post-drug administration
# [28] = ip, 1 h, read-out: DeltaLOG CPU 1 hr, route IP, dose 25 mg/kg, 1 hr post-drug administration
molecule,measurement,setting,value
O=C(O)c1cn(C2CC2)c2cc(N3CCNCC3)c(F)cc2c1=O [Ciprofloxacin],Aerosol Tolerability and Taste,[1],"very strong, bitter unpleasant"
same,SP MIC90,[2],2 µg/mL
same,MSSA MIC90,MSSA,1 µg/mL
same,MRSA MIC90,[3],64 µg/mL
same,Pa MIC90,[4]; Table 6,8 µg/mL
same,rank of potency against Pa,[4],most potent
same,penetration into lung tissues,[5],much less efficiently than levofloxacin
same,"peak concentration, serum",[6],~4.2 µg/mL
same,"time of peak drug concentration, serum",[6],1.5 h
same,log reduction at 25 mg/kg,[7]; [26],2.32
same,log reduction at 25 mg/kg,[7]; [27],1.45
same,log reduction at 25 mg/kg,[7]; [28],1.59
same,log reduction at 25 mg/kg,"[7]; ip, 4 h, read-out: DeltaLOG CPU 4 hr, route IP, dose 25 mg/kg, 4 hr post-drug administration",0.41
"C[C@H]1COc2c(N3CCN(C)CC3)c(F)cc3c(=O)c(C(=O)O)cn1c23 [Levofloxacin, levofloxacin]",MIC,PAM1020 [8],0.25 µg/mL
same,Levofloxacin MIC,PAM1032 [9],1 µg/mL
same,Levofloxacin MIC,PAM1032 [9]; listed as levofloxacin,1.0 µg/mL
same,MIC,PAM1582 [10],32 µg/mL
same,"maximum killing, decrease in viable cell counts",PAM1020 [11],5.5 log
same,stronger killing at longer exposure intervals (difference),PAM1032 [12],less than 1 log
same,maximum observed bactericidal activity against biofilms,[13],99%
same,time to maximum bactericidal effect,PAM1032 [14]; Cmax 600 ug/ml,30 min
same,reduction in bacterial counts,PAM1032 [14]; Cmax 600 ug/ml,5 log
same,time to maximum bactericidal effect,PAM1032 [14]; Cmax 1000 ug/ml,≤ 10 min
same,reduction in bacterial counts,PAM1032 [14]; Cmax 1000 ug/ml,5 log
same,bacterial reduction,"PAM1032 [14]; Cmax of both 600 and 1000 ug/ml, strain with MIC of 1 ug/ml",≤ 99.9999%
same,bacterial reduction,PAM1582 [15],up to 99.99%
same,reduction in bacterial counts,PAM1582 [15]; Cmax 600 ug/ml,3 log
same,reduction in bacterial counts,PAM1582 [15]; Cmax 1000 ug/ml,4 log
same,bacterial reduction,PAM1582 [15]; listed as levofloxacin,up to 99.999%
same,Aerosol Tolerability and Taste,[1],"chemical taste, somewhat bitter,"
same,"F, % from Lung vs. IV",[16]; IT,86%
same,AUC,"[16]; rat, inhaled or intranasal, IT",12100 ng·h/mL
same,AUC,"[16]; rat, iv",10500 ng·h/mL
same,half-life,"[16]; rat, in vivo, inhaled or intranasal, IT, read-out: Serum t1/2 (converted)",24 min
same,AUC(0-inf),"[16]; rat, serum, inhaled or intranasal, IT",3280 ng·h/mL
same,acidic pKa,physchem [17],~1.6
same,pKb,physchem [17],7.7
same,pKa,physchem [17]; acidic pKa,< 2
same,pKa,physchem [17]; pKa,6.3
same,pKa,physchem [17]; pKa of the basic site as stated in text,~6.8
same,pKa,physchem [18],5.91
same,penetration into lung tissues,[5],penetrates well into lung tissues
same,log reduction at 25 mg/kg,[7]; [26],2.48
same,log reduction at 25 mg/kg,[7]; [27],1.45
same,log reduction at 25 mg/kg,[7]; [28],1.4
same,survival,[19]; 4 day treatment period,all animals survived
same,necropsy,[19]; after the last dose,did not show any findings
same,survival,[20]; 28 day treatment period,all animals survived
same,necropsy,[20]; after the last dose,dose related squamous cell hyperplasia of the larynx
same,necropsy,[21],did not show any findings
same,tolerability of hypotonic solutions for inhalation,[22]; concentrations greater than 10 mg/ml,poorly tolerated
same,overall tolerability,[22]; first test,well tolerated
same,acute tolerability,"[22]; second test: 4 ml of 18.75 mg/mL, Aerogen Small, estimated RDD 35 mg",very comparable to the first test
same,"adverse effects in the throat, airway or lungs","[22]; third test: 4 mL of 18.75 mg/mL, PARI Large, estimated RDD ~55 mg","no adverse effects in the throat, airway or lungs"
CO/N=C1\CN(c2nc3c(cc2F)c(=O)c(C(=O)O)cn3C2CC2)CC1CN (centres unmarked) [Gemifloxacin mesylate],pH of filtered solution in water,[23],4.28 and 4.21 and 4.40 and 4.32 and 4.20
CC1COc2c(N3CCN(C)CC3)c(F)cc3c(=O)c(C(=O)O)cn1c23 (racemic) [Ofloxacin],Aerosol Tolerability and Taste,[1],"bitter chemical taste, mild cough sensation"
same,distribution into sputum,[24],79%
CCC(=O)O[C@H]1[C@H](O[C@@H]2[C@@H](C)[C@H](O[C@H]3C[C@@](C)(OC)[C@@H](O)[C@H](C)O3)[C@@H](C)C(=O)O[C@H](CC)[C@@](C)(O)[C@H](O)[C@@H](C)C(=O)[C@H](C)C[C@@]2(C)O)O[C@H](C)C[C@@H]1N(C)C [erythromycin estolate],solubility as fraction of that of the free base,[25],approximately 1/12
B1,increase of sol elastase activity after treatment of CF sputum,elastase,60%
